Laboratory results: patent US20170008888A1 (KYORIN PHARMACEUTICAL CO., LTD., priority 2014, published 2017)

How the values were obtained:
Type in all cases: binding
ERK5 = molecular target: T1, ERK5 (Homo sapiens, UniProt Q13164); experiment: Probe-based (AX9989 acyl phosphate ATP probe) kinase profiling in Jurkat lysate: ERK5; conditions: for IC50: calculated from percent inhibition and screening concentration, Jurkat lysate, AX9989 probe; for inhibition at 10 µM: screening concentration 10 μM; for inhibition at 10 µM / inhibition at 1 µM: read-out: ERK5 Inhibition % at indicated screening concentration; for inhibition at 1 µM: screening concentration 1 μM
T1 construct: screened for activity against several kinases in Jurkat cells; endogenous in cells; host or cells: Jurkat cell lysate
T1 sequence (Q13164 whole entry): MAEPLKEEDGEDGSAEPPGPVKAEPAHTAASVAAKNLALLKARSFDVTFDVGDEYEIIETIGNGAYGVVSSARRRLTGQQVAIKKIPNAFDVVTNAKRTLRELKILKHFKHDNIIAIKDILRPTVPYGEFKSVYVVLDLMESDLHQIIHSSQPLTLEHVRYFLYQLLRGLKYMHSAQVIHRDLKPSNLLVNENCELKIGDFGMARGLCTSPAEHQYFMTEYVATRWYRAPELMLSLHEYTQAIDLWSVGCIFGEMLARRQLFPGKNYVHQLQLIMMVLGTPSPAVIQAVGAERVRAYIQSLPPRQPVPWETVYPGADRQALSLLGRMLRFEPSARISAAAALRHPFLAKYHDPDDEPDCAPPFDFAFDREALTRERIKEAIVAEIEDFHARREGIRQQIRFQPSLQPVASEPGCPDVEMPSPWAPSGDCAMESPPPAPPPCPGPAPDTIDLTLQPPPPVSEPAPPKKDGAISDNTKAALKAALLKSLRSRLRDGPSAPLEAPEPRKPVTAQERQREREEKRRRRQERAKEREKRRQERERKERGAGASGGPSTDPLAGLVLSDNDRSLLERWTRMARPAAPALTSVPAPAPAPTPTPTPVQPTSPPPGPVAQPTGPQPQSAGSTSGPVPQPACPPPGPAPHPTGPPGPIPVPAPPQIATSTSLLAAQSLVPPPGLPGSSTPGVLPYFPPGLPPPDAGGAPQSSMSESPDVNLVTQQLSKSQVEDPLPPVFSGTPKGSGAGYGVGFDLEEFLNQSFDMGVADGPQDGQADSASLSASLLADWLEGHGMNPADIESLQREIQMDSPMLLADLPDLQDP
Procedure, shortened: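 ERK5 IC50 values came from percent inhibition at the screening concentration, measured as loss of LC/MS signal of probe-labelled active-site peptides. Compound was added for 15 min at room temperature to Jurkat lysate (5 mg/ml, 20 mM MnCl2) before labelling with AX9989 ATP acyl phosphate probe at 5 μM.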

AurA = molecular target: T2, AurA (Homo sapiens, UniProt O14965); experiment: Probe-based (AX9989) kinase profiling in Jurkat lysate: AurA; conditions: read-out: AurA Inhibition % at indicated screening concentration; for inhibition at 10 µM: screening concentration 10 μM; for inhibition at 1 µM: screening concentration 1 μM
T2 construct: screened for activity against several kinases in Jurkat cells; endogenous in cells; host or cells: Jurkat cell lysate
T2 sequence (O14965 1-403): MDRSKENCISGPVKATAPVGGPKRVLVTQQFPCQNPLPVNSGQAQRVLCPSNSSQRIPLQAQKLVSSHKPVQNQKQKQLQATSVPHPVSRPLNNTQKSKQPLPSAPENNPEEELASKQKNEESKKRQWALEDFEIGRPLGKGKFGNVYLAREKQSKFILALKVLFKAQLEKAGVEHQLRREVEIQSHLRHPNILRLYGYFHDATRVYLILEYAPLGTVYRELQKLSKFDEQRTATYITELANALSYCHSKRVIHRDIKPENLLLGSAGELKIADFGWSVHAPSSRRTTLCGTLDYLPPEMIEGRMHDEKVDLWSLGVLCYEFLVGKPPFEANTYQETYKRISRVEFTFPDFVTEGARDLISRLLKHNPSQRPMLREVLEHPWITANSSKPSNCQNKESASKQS
Procedure, shortened: (§1)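 Percent inhibition was derived from reduced LC/MS fragment intensities of probe-labeled peptides relative to compound-free controls. Before labeling with 5 μM AX9989, Mn2+-supplemented (20 mM) Jurkat lysate was exposed to compound for 15 min at room temperature.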

AurB or AurC = experiment: Probe-based (AX9989) kinase profiling in Jurkat lysate: AurB or AurC
Procedure, shortened: as §1

JAK1 = molecular target: T3, JAK1 (Homo sapiens, UniProt P23458); experiment: Probe-based (AX9989) kinase profiling in Jurkat lysate: JAK1; conditions: read-out: JAK1 Inhibition % at indicated screening concentration; for inhibition at 10 µM: screening concentration 10 μM; for inhibition at 1 µM: screening concentration 1 μM
T3 construct: screened for activity against several kinases in Jurkat cells; endogenous in cells; host or cells: Jurkat cell lysate
T3 sequence (P23458 whole entry): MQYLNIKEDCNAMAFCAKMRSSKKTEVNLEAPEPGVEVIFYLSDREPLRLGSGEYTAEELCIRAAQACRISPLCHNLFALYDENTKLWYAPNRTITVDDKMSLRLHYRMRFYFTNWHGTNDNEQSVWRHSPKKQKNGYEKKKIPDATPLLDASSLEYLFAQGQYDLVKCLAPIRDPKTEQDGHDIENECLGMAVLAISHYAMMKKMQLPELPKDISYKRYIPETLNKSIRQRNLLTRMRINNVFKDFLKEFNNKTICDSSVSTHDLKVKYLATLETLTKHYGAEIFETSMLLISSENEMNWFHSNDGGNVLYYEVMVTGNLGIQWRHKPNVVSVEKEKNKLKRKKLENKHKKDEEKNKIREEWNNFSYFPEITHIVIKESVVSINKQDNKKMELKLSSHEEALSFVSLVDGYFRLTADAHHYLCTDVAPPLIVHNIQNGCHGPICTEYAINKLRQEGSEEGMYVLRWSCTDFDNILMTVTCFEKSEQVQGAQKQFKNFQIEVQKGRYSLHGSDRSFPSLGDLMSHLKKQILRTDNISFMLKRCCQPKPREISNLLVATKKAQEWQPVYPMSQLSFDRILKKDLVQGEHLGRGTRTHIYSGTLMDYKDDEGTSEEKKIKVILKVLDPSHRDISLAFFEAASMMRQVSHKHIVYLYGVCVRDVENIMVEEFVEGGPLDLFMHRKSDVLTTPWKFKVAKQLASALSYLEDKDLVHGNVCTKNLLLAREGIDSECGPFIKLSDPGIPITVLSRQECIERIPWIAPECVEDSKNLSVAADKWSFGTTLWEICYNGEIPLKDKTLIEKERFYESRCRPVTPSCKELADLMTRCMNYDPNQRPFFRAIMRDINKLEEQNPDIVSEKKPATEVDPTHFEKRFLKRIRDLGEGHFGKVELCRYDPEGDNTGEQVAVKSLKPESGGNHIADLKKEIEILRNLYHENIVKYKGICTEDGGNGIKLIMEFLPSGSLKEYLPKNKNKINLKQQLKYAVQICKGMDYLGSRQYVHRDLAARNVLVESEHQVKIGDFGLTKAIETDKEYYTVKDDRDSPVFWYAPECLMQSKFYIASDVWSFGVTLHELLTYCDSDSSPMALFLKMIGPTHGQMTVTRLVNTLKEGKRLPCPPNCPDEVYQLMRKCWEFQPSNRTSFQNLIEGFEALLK
Procedure, shortened: as §1

AMPKa1 or AMPKa2 = experiment: Probe-based (AX9989) kinase profiling in Jurkat lysate: AMPKa1 or AMPKa2
Procedure, shortened: as §1

TAO2 = molecular target: T4, TAO2 (Homo sapiens, UniProt Q9UL54); experiment: Probe-based (AX9989) kinase profiling in Jurkat lysate: TAO2; conditions: read-out: TAO2 Inhibition % at indicated screening concentration; for inhibition at 10 µM: screening concentration 10 μM; for inhibition at 1 µM: screening concentration 1 μM
T4 construct: screened for activity against several kinases in Jurkat cells; endogenous in cells; host or cells: Jurkat cell lysate
T4 sequence (Q9UL54 1-1235): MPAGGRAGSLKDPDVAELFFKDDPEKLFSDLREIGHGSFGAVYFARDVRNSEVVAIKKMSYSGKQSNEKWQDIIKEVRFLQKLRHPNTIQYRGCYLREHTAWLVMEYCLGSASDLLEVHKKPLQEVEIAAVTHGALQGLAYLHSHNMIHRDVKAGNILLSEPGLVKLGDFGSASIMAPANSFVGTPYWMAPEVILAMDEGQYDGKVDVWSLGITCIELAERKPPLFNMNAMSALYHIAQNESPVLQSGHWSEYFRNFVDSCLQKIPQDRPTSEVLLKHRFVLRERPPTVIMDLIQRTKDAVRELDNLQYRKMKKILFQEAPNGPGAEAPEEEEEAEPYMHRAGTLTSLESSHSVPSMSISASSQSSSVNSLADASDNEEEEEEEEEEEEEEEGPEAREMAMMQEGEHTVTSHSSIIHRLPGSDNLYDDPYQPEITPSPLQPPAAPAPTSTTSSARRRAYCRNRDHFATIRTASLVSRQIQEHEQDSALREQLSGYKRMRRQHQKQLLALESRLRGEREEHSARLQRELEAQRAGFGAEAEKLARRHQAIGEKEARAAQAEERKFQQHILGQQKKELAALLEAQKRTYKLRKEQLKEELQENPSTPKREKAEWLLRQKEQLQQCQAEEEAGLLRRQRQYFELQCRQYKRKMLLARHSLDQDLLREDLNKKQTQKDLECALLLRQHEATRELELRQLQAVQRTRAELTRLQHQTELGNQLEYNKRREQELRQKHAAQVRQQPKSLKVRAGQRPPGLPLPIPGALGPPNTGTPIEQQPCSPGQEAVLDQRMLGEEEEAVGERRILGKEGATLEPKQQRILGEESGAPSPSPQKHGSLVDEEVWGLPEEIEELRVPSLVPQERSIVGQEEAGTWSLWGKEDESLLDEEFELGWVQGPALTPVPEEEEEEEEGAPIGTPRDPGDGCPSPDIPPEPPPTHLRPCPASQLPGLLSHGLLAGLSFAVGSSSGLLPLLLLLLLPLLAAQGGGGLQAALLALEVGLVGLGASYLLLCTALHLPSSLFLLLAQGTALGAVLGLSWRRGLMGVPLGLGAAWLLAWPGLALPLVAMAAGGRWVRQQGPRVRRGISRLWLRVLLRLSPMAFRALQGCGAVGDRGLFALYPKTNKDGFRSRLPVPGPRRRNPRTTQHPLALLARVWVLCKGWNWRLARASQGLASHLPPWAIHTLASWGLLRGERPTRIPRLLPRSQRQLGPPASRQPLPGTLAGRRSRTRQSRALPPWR
Procedure, shortened: as §1

ACK = molecular target: T5, ACK (Homo sapiens, UniProt Q07912); experiment: Probe-based (AX9989) kinase profiling in Jurkat lysate: ACK; conditions: read-out: ACK Inhibition % at indicated screening concentration; for inhibition at 10 µM: screening concentration 10 μM; for inhibition at 1 µM: screening concentration 1 μM
T5 construct: screened for activity against several kinases in Jurkat cells; endogenous in cells; host or cells: Jurkat cell lysate
T5 sequence (Q07912 whole entry): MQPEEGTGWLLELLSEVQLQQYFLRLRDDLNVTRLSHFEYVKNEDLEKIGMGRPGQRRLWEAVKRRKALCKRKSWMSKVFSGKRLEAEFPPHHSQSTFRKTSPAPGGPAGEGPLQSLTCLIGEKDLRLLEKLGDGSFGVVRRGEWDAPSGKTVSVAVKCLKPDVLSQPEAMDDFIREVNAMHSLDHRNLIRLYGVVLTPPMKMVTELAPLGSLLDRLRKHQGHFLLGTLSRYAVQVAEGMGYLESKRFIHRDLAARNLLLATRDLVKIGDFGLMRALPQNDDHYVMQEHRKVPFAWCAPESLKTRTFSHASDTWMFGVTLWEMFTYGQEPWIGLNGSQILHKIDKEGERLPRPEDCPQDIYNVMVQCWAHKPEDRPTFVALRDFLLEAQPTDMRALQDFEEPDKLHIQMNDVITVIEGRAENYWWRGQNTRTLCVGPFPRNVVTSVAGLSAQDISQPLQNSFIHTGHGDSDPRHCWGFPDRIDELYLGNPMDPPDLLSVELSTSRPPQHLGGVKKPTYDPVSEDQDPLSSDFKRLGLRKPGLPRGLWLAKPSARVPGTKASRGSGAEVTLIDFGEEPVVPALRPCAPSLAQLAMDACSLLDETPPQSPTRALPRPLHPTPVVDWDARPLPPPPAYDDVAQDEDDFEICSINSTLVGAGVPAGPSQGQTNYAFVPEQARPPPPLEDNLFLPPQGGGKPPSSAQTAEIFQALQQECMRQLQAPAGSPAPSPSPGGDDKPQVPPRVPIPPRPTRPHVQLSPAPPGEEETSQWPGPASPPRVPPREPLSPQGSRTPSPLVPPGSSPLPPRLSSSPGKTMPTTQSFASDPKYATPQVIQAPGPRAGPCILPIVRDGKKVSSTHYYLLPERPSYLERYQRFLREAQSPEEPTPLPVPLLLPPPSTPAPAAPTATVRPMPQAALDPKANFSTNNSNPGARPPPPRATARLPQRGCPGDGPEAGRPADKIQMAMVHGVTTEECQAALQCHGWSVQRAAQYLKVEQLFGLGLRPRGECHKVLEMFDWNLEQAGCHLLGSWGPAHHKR
Procedure, shortened: as §1

ABL or ARG = experiment: Probe-based (AX9989) kinase profiling in Jurkat lysate: ABL or ARG
Procedure, shortened: as §1

| IC50 (ERK5) [µM] | inhibition at 10 µM (ERK5) [%] | inhibition at 10 µM (AurA) [%] | AurB or AurC Inhibition % at indicated screening concentration (AurB or AurC; screening concentration 10 μM) | inhibition at 10 µM (JAK1) [%] | AMPKa1 or AMPKa2 Inhibition % at indicated screening concentration (AMPKa1 or AMPKa2; screening concentration 10 μM) | inhibition at 10 µM (TAO2) [%] | inhibition at 10 µM (ACK) [%] | ABL or ARG Inhibition % at indicated screening concentration (ABL or ARG; screening concentration 10 μM) | inhibition at 1 µM (ERK5) [%] | inhibition at 1 µM (AurA) [%] | AurB or AurC Inhibition % at indicated screening concentration (AurB or AurC; screening concentration 1 μM) | inhibition at 1 µM (JAK1) [%] | AMPKa1 or AMPKa2 Inhibition % at indicated screening concentration (AMPKa1 or AMPKa2; screening concentration 1 μM) | inhibition at 1 µM (TAO2) [%] | inhibition at 1 µM (ACK) [%] | ABL or ARG Inhibition % at indicated screening concentration (ABL or ARG; screening concentration 1 μM) | SMILES |
| --- | --- | --- | --- | --- | --- | --- | --- | --- | --- | --- | --- | --- | --- | --- | --- | --- | --- |
| > 0.5 | 75 to 90 | ≤ 35 | E (E is ≦35%) | ≤ 35 | E (E is ≦35%) | ≤ 35 | ≤ 35 | E (E is ≦35%) |  |  |  |  |  |  |  |  | CCOc1cc(C(=O)N2CCOCC2)ccc1Nc1cc2c(cn1)N(C)C(=O)c1ccccc1[S+]2[O-] (stereo not drawn) [Compound T83, 3-((2-ethoxy-4-(morpholine-4-carbonyl)phenyl)amino)-11-methylbenzo[f]pyrido[4,3-b][1,4]thiazepin-10(11H)-one 5-oxide] |
| > 0.5 | 75 to 90 | ≤ 35 | E (E is ≦35%) | ≤ 35 | E (E is ≦35%) | ≤ 35 | ≤ 35 | E (E is ≦35%) |  |  |  |  |  |  |  |  | CCOc1cc(C(=O)N2CCOCC2)ccc1Nc1cc2c(cn1)N(C)C(=O)c1ccccc1S2(=O)=O [Compound T84] |
| > 0.5 |  |  |  |  |  |  |  |  | 35 to 50 | ≤ 35 | E (E is ≦35%) | ≤ 35 | E (E is ≦35%) | ≤ 35 | ≤ 35 | E (E is ≦35%) | CN1C(=O)c2ccccc2N(S(C)(=O)=O)c2cc(N[C@H]3CC[C@H](O)CC3)ncc21 [Compound T86, 3-(((1r,4r)-4-hydroxycyclohexyl)amino)-11-methyl-5-(methylsulfonyl)-5H-benzo[e]pyrido[3,4-b][1,4]diazepin-10(11H)-one] |
| > 0.5 |  |  |  |  |  |  |  |  | 50 to 75 | ≤ 35 | E (E is ≦35%) | ≤ 35 | E (E is ≦35%) | ≤ 35 | ≤ 35 | E (E is ≦35%) | CCOc1cc(C(=O)N2CCN(C3CCN(C)CC3)CC2)ccc1Nc1cc2c(cn1)N(C)C(=O)c1ccccc1N2S(C)(=O)=O [Compound T87] |
